Measured values from patent publication US7332495B2 (priority 2002, dated 2008).

Key:
Kunming mice [1] = assay: Sedation: spontaneous activities recorded with alternating current tube; format: in vivo; conditions: i.p. 20 mg/Kg, spontaneous activities; for inhibition in vivo at 20 mg/kg: Mus musculus, ip
Method: Kunming mice were used, with a male-female ratio of 50-50%. […] After 30 minutes, acetic acid (0.7%, […] i.p.) was injected and the number of writhes was observed during a 5-minute period after acetic acid administration. The inhibition ratio of the writhing threshold was calculated. The alternating current tube is used to record the spontaneous activities for measuring sedation.

Kunming mice [2] = assay: Mice writhing model (acetic acid); format: in vivo; conditions: i.p. 20 mg/Kg, acetic acid 0.7% i.p. after 30 minutes, writhes in 5 minutes; for inhibition in vivo at 20 mg/kg: Mus musculus, ip, read-out: Analgesia (inhibition ratio of writhing)
Method: Kunming mice were used, with a male-female ratio of 50-50%. The test compound is administered i.p. (20 mg/Kg body weight) to the test groups, and physiological saline is administered P.O. (20 ml/Kg body weight) to the control group. After 30 minutes, acetic acid (0.7%, […] i.p.) was injected and the number of writhes was observed during a 5-minute period after acetic acid administration. The inhibition ratio of the writhing threshold was calculated. The alternating current tube is used to record the spontaneous activities for measuring sedation.
Two species of animals (mice and rats) and four types of pain testing models (i.p. 0.7% acetic acid, s.c. 5% formalin, hot plate 55° C., focused radiant heat) were used.

Row | SMILES | inhibition in vivo at 20 mg/kg (Kunming mice [1]) | inhibition in vivo at 20 mg/kg (Kunming mice [2]) | Sedation (Kunming mice [1]) | Analgesia (inhibition ratio of writhing) (Kunming mice [2])
1 | O=C(CN1CCN(Cc2ccccc2)CC1)c1ccccc1 [IV-1, N^1-benzyl-N^4-phenacyl piperazine] | 65.6% | 68.2% |  | 
2 | O=C(CN1CCN(Cc2ccc(Cl)cc2)CC1)c1ccccc1 [IV-3, N^1-(4-chlorobenzyl)-N^4-phenacyl piperazine] | 70.8% | 56.6% |  | 
3 | O=C(CN1CCN(Cc2ccc([N+](=O)[O-])cc2)CC1)c1ccccc1 [IV-4, N^1-(4-nitrobenzyl)-N^4-phenacyl piperazine] | 39.6% | 93.2% |  | 
4 | CCOC(=O)C(c1ccccc1)N1CCN(CC(=O)c2ccccc2)CC1 (stereo not drawn) [IV-5, N^1-[(1-ethoxy-oxo-methyl)benzyl]-N^4-phenacyl piperazine] |  |  | 44% | 14%
5 | O=C(CN1CCN(Cc2ccccc2)CC1)c1ccc(Cl)cc1 [IV-6, N^1-benzyl-N^4-(4-chlorophenacyl)piperazine] | 73% | 43% |  | 
6 | O=C(CN1CCN(Cc2ccccc2)CC1)c1ccc2ccccc2c1 [IV-7, N^1-benzyl-N^4-(2-naphthoylmethyl)piperazine] | 43% | 25% |  | 
7 | COc1ccc(C(=O)CN2CCN(Cc3ccccc3)CC2)cc1 [IV-8, N^1-benzyl-N^4-(4-methoxyphenacyl)piperazine] | 64% | 39% |  | 
8 | O=C(CN1CCN(Cc2ccccc2)CC1)c1ccc([N+](=O)[O-])cc1 [IV-9, N^1-benzyl-N^4-(4-nitrophenacyl)piperazine] | 32% | 74% |  | 
9 | O=C(CN1CCN(Cc2cccnc2)CC1)c1ccccc1 [IV-11, N^1-(3-pyridylmethyl)-N^4-phenacyl piperazine] | 91% | 86% |  | 
10 | CC(C(=O)c1ccccc1)N1CCN(Cc2ccc(N)cc2)CC1 (stereo not drawn) [IV-13, N^1-(4-aminobenzyl)-N^4-(1-benzoylethyl)piperazine] | 86% | 100% |  | 
11 | COc1ccc(OC)c(CN2CCN(CC(=O)c3ccccc3)CC2)c1 [IV-15, N^1-(2,5-dimethoxybenzyl)-N^4-phenacyl piperazine] | 93% | 80% |  | 
12 | Nc1ccc(C(=O)CN2CCN(Cc3ccccc3)CC2)cc1 [IV-16, N^1-benzyl-N^4-(4-aminophenacyl)piperazine] | 51% | 63% |  | 
13 | O=C(CCN1CCN(Cc2ccccc2)CC1)c1ccccc1 [IV-17, N^1-benzyl-N^4-(2-benzoylethyl)piperazine] | 75% | 45% |  | 
14 | CC(=O)Nc1ccc(C(=O)CN2CCN(Cc3ccc([N+](=O)[O-])cc3)CC2)cc1 [IV-18, N^1-(4-nitrobenzyl)-N^4-[(4-acetamido)phenacyl]piperazine] | 65% | 64% |  | 
15 | O=C(CN1CCN(Cc2ccc(F)cc2)CC1)c1ccc(Cl)cc1 [IV-20, N^1-(4-fluorobenzyl)-N^4-(4-chlorophenacyl)piperazine] | 60% | 45% |  | 
16 | COc1ccc(C(=O)CN2CCN(CCC(O)c3ccccc3)CC2)cc1 (stereo not drawn) [IV-22, N^1-(3-phenylpropyl-3-ol)-N^4-(4-methoxyphenacyl)piperazine] |  |  | 84% | 100%
17 | COc1ccc([N+](=O)[O-])cc1CN1CCN(CC(=O)c2ccccc2)CC1 [IV-23, N^1-(2-methoxy-5-nitrobenzyl)-N^4-phenacyl piperazine] | 96% | 87% |  | 
18 | CC(c1ccc(F)cc1)N1CCN(CC(=O)c2ccccc2)CC1 (stereo not drawn) [IV-24, N^1-[1-(4-fluorophenyl)ethyl]-N^4-phenacyl piperazine] | 47% | 64% |  | 
